The values that follow come from patent publication USRE31181E, “Means and method for improving natural defenses against caries” (priority 1980, dated 1983).

The subject of the assay is oral bacteria. Description: pH of glucose solution incubated with oral bacteria (salivary sediment) and test substance. In kind it is cell-based. The following applies: for pH / pH rising to (pH rise after the drop) / pH drop to (lowest pH reached): glucose 2.8 mM; for pH: substance 3.3 mM final, 37° C.; for pH rising to (pH rise after the drop) / pH drop to (lowest pH reached): salivary sediment 16.7% (v/v), peptide 3.3 mM; for pH rising to (pH rise after the drop): measured through the fourth hour; for pH drop to (lowest pH reached): pH starts slightly above 7. On the procedure: Experiments were performed in vitro using supernatant saliva. The saliva was obtained from random donors whose salivary secretions were paraffin block stimulated. The saliva donations were pooled before and after sediment removal.
Four sets of three 10×75 mm test tubes were provided with 0.2 ml of 8.4 mM (millimolar) of aqueous glucose solution. Set I was provided with 0.2 ml of pooled supernatant saliva. Set II was provided with 0.2 ml of 9.9 mM of the peptide glycine-glycine-arginine. Set III was provided with 0.2 ml of 9.9 mM arginine. Set IV was provided with 0.2 ml of distilled water. Sequentially 0.2 ml of a 50:50 aqueous suspension of oral bacteria was added to each test tube. The concentration of the peptide in the combined composition was 3.3 mM. The prepared test tubes were kept at 37° C. in a water bath. pH readings were taken at 0 time when the bacteria were added and at 15, 30, 45, 60, 90, 120, 180 and 240 minutes.
The tests were carried out under the same conditions as Sets I-IV. The salivary sediment was present in an amount of 16.7% (v/v), glucose 2.8 mM and the peptide 3.3 mM in the final composition.
Duplicate runs without peptide were run parallel to the others as a double check. […] Measurement continues through the fourth hour.

[1] abbreviates: time 0 minutes (bacteria added).

Where a SMILES comes first, the peptide text is derived from it.

Turning to `N=C(N)NCCC[C@H](N)C(=O)O` [Set III, arginine, reference compound], the pH reads like this: under setting [1], 7.3; (time 15 minutes) 5.8; (time 30 minutes) 5.4; (time 45 minutes) 5.2; (time 60 minutes) 4.9; (time 90 minutes) 5.0. The pH is, setting by setting: (time 120 minutes) 5.0; (time 180 minutes) 5.3; (time 240 minutes) 5.8.
In the case of `N=C(N)NCCC[C@H](NC(=O)[C@H](CCCCN)NC(=O)CNC(=O)CN)C(=O)O` [Gly--Gly--Lys--Arg, H-glycine-glycine-lysine-arginine-OH] (H-GGKR-OH), the “pH rising to (pH rise after the drop)” value was 8.4 and the “pH drop to (lowest pH reached)” value is 6.4. Moreover, for the setting “synthesized peptide”, the “effectiveness as pH rise factor” value was “proven effective”.
Turning to `N=C(N)NCCC[C@H](N)C(=O)O.NCC(=O)O.NCC(=O)O` [Gly--Gly--Arg, glycine-glycine-arginine], the “pH rising to (pH rise after the drop)” value is given as 7.5 and the “pH drop to (lowest pH reached)” value is listed as 5.5. This compound gave a pH under setting [1] of 7.4. This compound returned a pH (time 15 minutes) of 6.8. Further, the pH (time 30 minutes) was found to be 6.6. Moreover, where the note is “time 45 minutes”, the pH is given as 6.4. Under “time 60 minutes”, this compound registered a pH of 6.6. Further, the pH (time 90 minutes) amounted to 6.6. The pH (time 120 minutes) came out at 6.7. The pH (time 180 minutes) came out at 7.2. Further, for the setting “time 240 minutes”, the pH is recorded as 7.6.
